Assay results taken from patent US20100009970A1, “COMPOSITIONS AND METHODS FOR TREATMENT OF VIRAL DISEASES” (Combinatorx (Singapore) Pte. Ltd., priority 2008, published 2010).
Counter-ions that a name gives are not always drawn.

test system: Huh7 cells expressing a subgenomic RNA replicon of Con1 (genotype 1b) sequence origin; assay: microbe, parasite or virus in culture; settings: Hepatitis C virus, Huh-7

Row | SMILES | IC50 [µM]
1 | CN(C)CCOc1ccc(/C(=C(/CCCl)c2ccccc2)c2ccccc2)cc1 [Toremifene, reference compound] | 15.9
2 | CC[C@]1(O)C[C@H]2CN(CCc3c([nH]c4ccccc34)[C@@](C(=O)OC)(c3cc4c(cc3OC)N(C=O)[C@H]3[C@@](O)(C(=O)OC)[C@H](OC(C)=O)[C@]5(CC)C=CCN6CC[C@]43[C@@H]65)C2)C1 [Vincristine (e.g., sulfate), Vincristine, reference compound] | 0.02
3 | CCN(CC)CCCC(C)Nc1c2ccc(Cl)cc2nc2ccc(OC)cc12 (stereo not shown) [Quinacrine, reference compound] | 4.17
4 | CCC[C@H](NC(=O)[C@@H]1[C@H]2CCC[C@H]2CN1C(=O)[C@@H](NC(=O)[C@@H](NC(=O)c1cnccn1)C1CCCCC1)C(C)(C)C)C(=O)C(=O)NC1CC1 [Telaprevir (VX-950), vx-950, reference compound] | 0.529
5 | C/C=C(/C)C(=O)O[C@H]1C(C)=C2[C@H]([C@@H]1OC(=O)CCCCCCC)[C@@](C)(OC(C)=O)C[C@H](OC(=O)CCC)[C@@]1(O)[C@H]2OC(=O)[C@@]1(C)O [Thapsigargin, reference compound] | 0.0113
6 | CN/C(=N\c1ccc(C2=NNC(=O)CC2C)cc1)NC#N (stereo not shown) [Siguazodan, reference compound] | 2.2
7 | Nc1ccccc1OCCCCCOc1ccccc1N [2,2′-(Pentamethylenedioxy)dianiline, reference compound] | 0.27
8 | O=C1C(CC[C@@H](O)c2ccc(F)cc2)[C@@H](c2ccc(O)cc2)N1c1ccc(F)cc1 (stereo partly shown) [Ezetimibe, ezitamibe, reference compound] | 4.2
9 | C[C@H]1[C@H](OC(=O)CCC(=O)O)O[C@@H]2O[C@@]3(C)CC[C@H]4[C@H](C)CC[C@@H]1[C@@]24OO3 [Artesunate, artesunate, reference compound] | 3.73
10 | COC(=O)Nc1nc2cc(C(=O)c3ccc(F)cc3)ccc2[nH]1 [Flubendazole, reference compound] | 0.173
11 | CCc1c2c(nc3ccc(OC(=O)N4CCC(N5CCCCC5)CC4)cc13)-c1cc3c(c(=O)n1C2)COC(=O)[C@]3(O)CC [Irinotecan (e.g., hydrochloride), irinotecan (CPT-11), reference compound] | 1.56
12 | COc1cc(/C=C/C(=O)CC(=O)/C=C/c2ccc(O)c(OC)c2)ccc1O [Curcumin, curcumin] | 8.68
13 | CC(C)n1c(/C=C/C(O)CC(O)CC(=O)O)c(-c2ccc(F)cc2)c2ccccc21 (stereo not shown) [Fluvastatin (e.g., sodium), fluvastatin, reference compound] | 22.2
14 | COC1=CC(=O)C[C@@H](C)[C@]12Oc1c(Cl)c(OC)cc(OC)c1C2=O [Griseofulvin (e.g., microcrystalline), Griseofulvin, reference compound] | 11.5
15 | CCC(C)(C)c1ccc(CC(C)CN2C[C@@H](C)O[C@@H](C)C2)cc1 (stereo partly shown) [Amorolfine (e.g., hydrochloride), amorolfine, reference compound] | 1.62
16 | O=C(c1ccc(OCCN2CCCCC2)cc1)c1c(-c2ccc(O)cc2)sc2cc(O)ccc12 [Raloxifene (e.g., hydrochloride), Raloxifene, reference compound] | 3.74
17 | COc1cc2c(cc1OC)-c1c/c(=N\c3c(C)cc(C)cc3C)n(C)c(=O)n1CC2 [Trequinsin (e.g., hydrochloride), Trequinsin, reference compound] | 2.93
18 | CN(C)CCCN1c2ccccc2Sc2ccccc21 [Promazine (e.g., hydrochloride), promazine, reference compound] | 16.1
19 | CC1=C(/C=C/C(C)=C/C=C/C(C)=C/C=C/C=C(C)/C=C/C=C(C)/C=C/C2=C(C)CCCC2(C)C)C(C)(C)CCC1 [Beta-Carotene] | 18.5
20 | Cc1cccc(CN2CCN(C(c3ccccc3)c3ccc(Cl)cc3)CC2)c1 (stereo not shown) [Meclizine, meclizine, reference compound] | 14.6
21 | O=c1[nH]c(=O)n([C@H]2C[C@H](O)[C@@H](CO)O2)cc1C(F)(F)F [Trifluridine, trifluridine, reference compound] | 0.38
22 | CN1CCN(CCCN2c3ccccc3Sc3ccc(C(F)(F)F)cc32)CC1 [Trifluoperazine (e.g., hydrochloride), Trifluoperazine, reference compound] | 4.97
23 | O=C(CCCCCCC(=O)NO)NO [Suberohydroxamic acid, suberohydroxamic acid, reference compound] | 4.02
24 | CN1CCCC(n2nc(Cc3ccc(Cl)cc3)c3ccccc3c2=O)CC1 (stereo not shown) [Azelastine, azelastine, reference compound] | 6.22
25 | C[C@]12CC[C@H](O)CC1=CC[C@@H]1[C@@H]2CC[C@]2(C)C(=O)CC[C@@H]12 [Dehydroepiandrosterone, reference compound] | 11.2
26 | Cc1c(O)cccc1C(=O)N[C@@H](CSc1ccccc1)[C@H](O)CN1C[C@H]2CCCC[C@H]2C[C@H]1C(=O)NC(C)(C)C [Nelfinavir (e.g., mesylate), nelfinavir, reference compound] | 4.25
27 | Oc1cc(O)cc(/C=C/c2ccc(O)c(O)c2)c1 [Piceatannol, reference compound] | 5.47

Row | SMILES | IC50 [µM]
28 | CC(C=NNC(=N)N)=NNC(=N)N [Methylglyoxal bis(guanylhydrazone) dihydrochloride hydrate, reference compound] | 10.8
29 | COc1cc(CNC(=O)CCCC/C=C/C(C)C)ccc1O [Capsaicin, reference compound] | 11.7
30 | CC(=O)O[C@H]1C(=O)[C@@]2(C)[C@H]([C@H](OC(=O)c3ccccc3)[C@]3(O)C[C@H](OC(=O)[C@H](O)[C@@H](NC(=O)c4ccccc4)c4ccccc4)C(C)=C1C3(C)C)[C@]1(OC(C)=O)CO[C@@H]1C[C@@H]2O [Paclitaxel, reference compound] | 0.0092
31 | C[C@@H]1C[C@@H]([C@H](O)CC2CC(=O)NC(=O)C2)C(=O)[C@@H](C)C1 [Cycloheximide, reference compound] | 0.184
32 | C[C@]12CC[C@@H]3c4ccc(O)cc4C[C@@H](CCCCCCCCC[S+]([O-])CCCC(F)(F)C(F)(F)F)[C@H]3[C@@H]1CC[C@@H]2O (stereo partly shown) [Fulvestrant, reference compound] | 3.05
33 | Oc1ccc(O)cc1 [Hydroquinone, reference compound] | 14
34 | CN(C)CCCC1(c2ccc(F)cc2)OCc2cc(C#N)ccc21 (stereo not shown) [Citalopram (e.g., hydrobromide), Citalopram, reference compound] | 27.3
35 | CC(C)c1nc(CN(C)C(=O)N[C@H](C(=O)N[C@@H](Cc2ccccc2)C[C@H](O)[C@H](Cc2ccccc2)NC(=O)OCc2cncs2)C(C)C)cs1 [Ritonavir, reference compound] | 14.9
36 | COc1cc(NC(=O)Nc2cccc(CNC(=O)O[C@H]3CCOC3)c2)ccc1-c1cnco1 [Merimepodib (VX-497), merimepodib, reference compound] | 0.475
37 | CCCCOc1cc(C(=O)OCCN(CC)CC)ccc1N [Benoxinate (e.g., hydrochloride), benoxinate, reference compound] | 3.02
38 | COCCCC/C(=N\OCCN)c1ccc(C(F)(F)F)cc1 [Fluvoxamine (e.g., maleate), Fluvoxamine, reference compound] | 23.8
39 | c1ccc(-c2ccc(C(c3ccccc3)n3ccnc3)cc2)cc1 (stereo not shown) [Bifonazole, reference compound] | 6.15
40 | CC(C)[C@H](N)C(=O)O[C@@H]1[C@@H](CO)O[C@@H](n2ccc(N)nc2=O)[C@]1(C)O [Valopicitabine (NM-283), Valopicitabine, reference compound] | 11.2
41 | COC(=O)Nc1nc2ccc(Sc3ccccc3)cc2[nH]1 [Fenbendazole, reference compound] | 0.419
42 | CC[C@@]1(O)C(=O)OCc2c1cc1n(c2=O)Cc2cc3ccccc3nc2-1 [Camptothecin, camptothecin, reference compound] | 0.026
43 | Oc1ccc(OCc2ccccc2)cc1 [Monobenzone, reference compound] | 1.59
44 | CC(C)C(C(=O)OC(C#N)c1cccc(Oc2ccccc2)c1)c1ccc(Cl)cc1 (stereo not shown) [Fenvalerate] | 18.9
45 | CCCC1O[C@@H]2C[C@H]3[C@@H]4CCC5=CC(=O)C=C[C@]5(C)[C@H]4[C@@H](O)C[C@]3(C)[C@]2(C(=O)CO)O1 (stereo partly shown) [Budesonide, budesonide, reference compound] | 15.7
46 | CCN(CC)CCCC(C)Nc1ccnc2cc(Cl)ccc12 (stereo not shown) [Chloroquine (e.g., phosphate), Chloroquine, reference compound] | 4.78
47 | CN1[C@@H]2CC[C@H]1C[C@@H](OC1c3ccccc3CCc3ccccc31)C2 [Deptropine (e.g., citrate), deptropine, reference compound] | 11.1
48 | O=C1Nc2ccc(Cl)cc2[C@@](C#CC2CC2)(C(F)(F)F)O1 [Efavirenz, efavirenz, reference compound] | 15.5
49 | CC[C@@]1(O)C(=O)OCc2c1cc1n(c2=O)Cc2cc3c(CN(C)C)c(O)ccc3nc2-1 [Topotecan (e.g., hydrochloride), topotecan, reference compound] | 0.095
50 | COc1cc(C(=O)OCCCN2CCCN(CCCOC(=O)c3cc(OC)c(OC)c(OC)c3)CC2)cc(OC)c1OC [Dilazep (e.g., dihydrochloride), Dilazep, reference compound] | 13.9
51 | N=c1ccn2c(n1)O[C@H]1[C@H](O)[C@@H](CO)O[C@H]12 [Cyclocytidine (e.g., hydrochloride), Cyclocytidine, reference compound] | 0.183
52 | CCCCCCCCCCCCCCOc1ccc(C(=O)O)o1 [TOFA, 5-(tetradecyloxy)-2-furancarboxylic acid, reference compound] | 5.53
53 | O=C1c2ccccc2-[n+]2ccc3c([nH]c4ccccc43)c21 [Fascaplysin, reference compound] | 0.444

same assay, conditions: Hepatitis C virus, Huh-7, read-out: Max Effect@CC30 (inhibition)

Row | SMILES | Emax [%]
54 | CSc1ccc(Oc2ccccc2CN(C)C)cc1 [Compound 35, N,N-dimethyl(2-(4-(methylthio)phenoxy)phenyl)methanamine] | 48
55 | CNCc1cc(S(N)(=O)=O)ccc1Oc1ccc(Br)cc1 [Compound 44, 4-(4-bromophenoxy)-3-((methylamino)methyl)benzenesulfonamide] | 32.1
